Columns and labels:
[1] = target: T1, acid α-galactosidase A (GLA) (Homo sapiens, UniProt P06280); experiment: Dried blood spot enzyme assay with Fabry substrate, tandem mass spectrometry detection of the enzymatic product; assay type: biochemical; conditions: with dried blood sample, 15 to 24 hours at 37° Celsius, sodium acetate pH 4.6
T1 construct: from tissue
T1 sequence (P06280 32-429): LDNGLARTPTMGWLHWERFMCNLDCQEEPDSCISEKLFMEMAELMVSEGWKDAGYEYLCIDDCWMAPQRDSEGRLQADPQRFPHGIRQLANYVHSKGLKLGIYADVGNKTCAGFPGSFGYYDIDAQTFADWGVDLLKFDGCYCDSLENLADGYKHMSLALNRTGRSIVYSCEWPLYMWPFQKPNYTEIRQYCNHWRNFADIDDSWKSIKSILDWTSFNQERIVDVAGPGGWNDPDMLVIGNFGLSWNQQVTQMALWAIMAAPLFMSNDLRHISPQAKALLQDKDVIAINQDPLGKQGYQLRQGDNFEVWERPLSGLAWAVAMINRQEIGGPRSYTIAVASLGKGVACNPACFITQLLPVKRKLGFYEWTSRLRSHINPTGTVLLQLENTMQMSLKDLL
Description: (§1) For each sample, a disk of 3 mm diameter is punched from the areas of dried blood on a filter paper into a micro-centrifuge tube or a well of a 96-well microtiter plate. The blood disk is then incubated directly with an assay solution containing a substrate directed to the Fabry disease. The assay solution is prepared by mixing a 10 mM solution of substrate (4-(Hexadecanoyl-DL-carnitineamido)phenyl-α-D-galactopyranoside), a 1 mM solution of the internal standard for the enzymatic product (4-(Hexadecanoyl-DL-carnitine[C16-d3]amido)phenol), a 1 M solution of Acetylgalactosamine, and a 0.4 M solution of sodium acetate pH 4.6 buffer in a 8:1:3:38 ratio. The assay mixture containing the blood disk is incubated for 15 to 24 hours at 37° Celsius with orbital shaking (150 rpm) in a thermostatic air shaker. After the incubation period, an aliquot of pure methanol (without the use of chloroform) is added to each tube or well to terminate the enzymatic reaction. Before going into the mass spectrometer, an aliquot of the incubated aliquot is diluted in pure methanol. For the mass spectrometry analysis, the electrospray source is operated in positive mode, and the ions are detected in the parent ion of 176 scan mode. The amount of enzymatic product is calculated from the ion abundance ratio of the product to the internal standard minus that of a blank.

[2] = Non-enzymatic hydrolysis of substrate in blank sample not containing blood, processed as the dried blood spots; assay type: physicochemical; conditions: blank without blood, same assay solution and processing
Description: as §1, with “After the incubation period, an aliquot of pure methanol (without the use of chloroform) is added to each tube or well to terminate the enzymatic reaction. Before going into the mass spectrometer, an aliquot of the incubated aliquot is diluted in pure methanol.” left out
The […] chain for this particular example was chosen to contain 10 carbons and thus decanoyl-carnitine was used in the synthesis of the substrate. […] The final sample solutions were analyzed on a Waters Quattro Micro ESI-triple quadrupole tandem mass spectrometer using a parent ion of 176 scan. […]

acid α-glucosidase (GAA) = experiment: Dried blood spot enzyme assay with Pompe substrate, tandem mass spectrometry detection of the enzymatic product; assay type: biochemical, human; conditions: pH 3.98
Description: An enzymatic reaction using a substrate directed to Pompe disease and the mass spectrometry analysis thereafter is carried out using the method specified in Example 1 with the following exceptions that sodium citrate was used as buffer. The assay solution for Example 2 was prepared by mixing a buffer solution (0.2 M sodium citrate/sodium phosphate, pH 3.98), a solution of 8 mM Acarbose, a solution of 10 mM substrate (4-Decanoyl-DL-carnitineamido)phenyl-α-D-glucopyranoside), and a solution of 1.0 mM internal standard (4-Decanoyl-DL-carnitine[C10-d3]amido)phenol) in a 93:1:4:2 ratio. The rest of the procedure is as indicated in Example 1.
In addition a blank filter paper sample not containing blood was processed following the same procedure as the dried blood spots. The same assay solution containing buffers, substrates, inhibitors and internal standards was used for all three samples. Therefore, all samples received the same concentration of reagents. The final sample solutions were analyzed on a Waters Quattro Micro ESI-triple quadrupole tandem mass spectrometer using a parent ion of 176 scan. The predominant peaks shown in the spectra are those corresponding to the intact substrate, internal standard and corresponding enzymatic product. […]

enzymatic product of the substrate detected by MS/MS [1]	non-enzymatic substrate hydrolysis (product found in blank) [2]	conversion of substrate to product (abundance of product relative to internal standard) (acid α-glucosidase (GAA); dried blood spot of healthy newborn)	Compound	conversion of substrate to product (abundance of product relative to internal standard) (acid α-glucosidase (GAA); dried blood spot of confirmed Pompe positive newborn)
significant amount	minimal amount		CCCCCCCCCCCCCCCC(=O)OC(CC(=O)Nc1ccc(O[C@H]2O[C@H](CO)[C@H](O)[C@H](O)[C@H]2O)cc1)C[N+](C)(C)C (mixture of isomers) [substrate directed to Fabry disease, 4-(Hexadecanoyl-DL-carnitineamido)phenyl-α-D-galactopyranoside]	
	negligible	highly noticeable	CCCCCCCCCC(=O)OC(CC(=O)Nc1ccc(O[C@H]2O[C@H](CO)[C@@H](O)[C@H](O)[C@H]2O)cc1)C[N+](C)(C)C (mixture of isomers) [substrate directed to Pompe disease, 4-(Decanoyl-DL-carnitineamido)phenyl-α-D-glucopyranoside]	no noticeable substrate to product conversion

Source: US8476414B2, “Substrates and internal standards for mass spectrometry detection” (PerkinElmer Health Sciences, Inc., priority 2006, dated 2013)
